Data on 14 compounds can be found in paper PMC6213796, “Purification and Identification of Angiotensin I-Converting Enzyme Inhibitory Peptides and the Antihypertensive Effect of Chlorella sorokiniana Protein Hydrolysates” (Nutrients, 2018).

One assay deals with T1, Rabbit lung ACE (Oryctolagus cuniculus, UniProt P12822).
T1 construct: ACE of rabbit lung, and other chemicals of analytical grade were obtained from Sigma Chemical Co; purchased Sigma Chemical Co. (St. Louis, MO, USA); host or cells: rabbit lung tissue
T1 sequence (P12822 34-1310): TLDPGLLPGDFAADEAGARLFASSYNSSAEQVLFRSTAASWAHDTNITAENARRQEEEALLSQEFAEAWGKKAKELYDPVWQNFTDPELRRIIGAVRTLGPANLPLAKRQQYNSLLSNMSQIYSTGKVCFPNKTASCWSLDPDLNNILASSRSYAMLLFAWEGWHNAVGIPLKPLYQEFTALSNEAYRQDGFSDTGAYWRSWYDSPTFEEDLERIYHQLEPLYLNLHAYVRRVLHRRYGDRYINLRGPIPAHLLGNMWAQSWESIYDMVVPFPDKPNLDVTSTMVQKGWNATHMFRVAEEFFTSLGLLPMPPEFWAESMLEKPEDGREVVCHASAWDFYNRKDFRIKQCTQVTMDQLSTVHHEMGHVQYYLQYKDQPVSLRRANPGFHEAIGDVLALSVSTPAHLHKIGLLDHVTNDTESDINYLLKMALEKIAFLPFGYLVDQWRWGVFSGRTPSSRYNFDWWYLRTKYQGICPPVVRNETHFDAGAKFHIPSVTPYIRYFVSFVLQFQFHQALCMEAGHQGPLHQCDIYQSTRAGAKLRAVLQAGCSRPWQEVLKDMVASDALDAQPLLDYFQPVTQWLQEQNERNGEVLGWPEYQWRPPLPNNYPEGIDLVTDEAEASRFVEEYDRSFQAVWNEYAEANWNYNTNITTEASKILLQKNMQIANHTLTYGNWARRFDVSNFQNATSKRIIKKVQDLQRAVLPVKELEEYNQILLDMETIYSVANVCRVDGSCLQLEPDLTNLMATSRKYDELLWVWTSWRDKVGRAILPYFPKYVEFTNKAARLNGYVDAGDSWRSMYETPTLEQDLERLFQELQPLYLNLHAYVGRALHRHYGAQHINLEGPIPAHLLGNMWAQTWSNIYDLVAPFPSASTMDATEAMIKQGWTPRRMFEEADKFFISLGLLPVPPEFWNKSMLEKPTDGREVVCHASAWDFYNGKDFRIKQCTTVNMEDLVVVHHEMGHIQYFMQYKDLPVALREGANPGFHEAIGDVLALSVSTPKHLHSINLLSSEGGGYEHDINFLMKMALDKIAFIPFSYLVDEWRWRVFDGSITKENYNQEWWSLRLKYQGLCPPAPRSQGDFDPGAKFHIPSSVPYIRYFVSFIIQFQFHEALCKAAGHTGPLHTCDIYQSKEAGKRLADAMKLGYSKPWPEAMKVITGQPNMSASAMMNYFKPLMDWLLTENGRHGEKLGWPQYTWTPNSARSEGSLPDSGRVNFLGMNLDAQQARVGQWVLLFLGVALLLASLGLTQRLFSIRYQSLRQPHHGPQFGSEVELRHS
The assay is described as follows: In vitro assay for ACE-inhibitory activity (HHL substrate, RP-HPLC of hippuric acid). It is filed as biochemical. Particulars: for ACE Inhibitory (%): RP-HPLC peaks of fraction F of PN-1G, at peptide content 0.01-0.03 mg/mL. How it is done: In brief, 15 mM HHL was dissolved in 100 mM Na-borate buffer (pH 8.3) supplemented with 300 mM NaCl. […] A mixture containing 75 μL of ACE solution and 75 μL of the sample with a 5000-Da MWCO membrane (Millipore, Burlington, MA, USA) was incubated at 37 °C for 10 min, to which was added 75 μL of HHL solution, and the mixture was incubated for a further 30 min. […] Finally, inhibition activity was calculated using the following formula.Inhibition activity (%) = [(Ec - Es)/(Ec - Eb)] × 100 where Ec is the absorbance with addition of the buffer instead of the test sample (control), Es is the absorbance when the sample was added to the reaction mixture (sample), and Eb is the absorbance when the stop solution was added before the reaction occurred (blank). […] All data presented in this paper are the average of three repeats or mean ± standard deviation (SD).

In a further assay the test system is ACE. Particulars: cited from earlier work.
A further assay relates to SHRs. The following applies: tube feeding, after 2 to 4 h, compared with captopril at the same dose; cited from earlier work.
Assay [1] deals with angiotensin I-converting enzyme (ACE) of rabbit lung (rabbit) (UniProt P12822).
For assay [2] the target is unchanged. The source holds these as a separate data set.
[3] abbreviates: peaks F7 to F10, converted from μM, read-out: IC50 (equivalent in mg/mL) (converted).
Setting [4] is: peptides of peaks F7 to F10 from PN-1G, read-out: IC50.
Setting [5] is: ACE-inhibitory peptides from pepsin hydrolysate of Porphyra yezoensis, read-out: IC50.

Read-outs that look alike come from different tables or passages of the source. Residues, ends and D or L forms follow the SMILES beside them.

Consider `CC(C)[C@H](NC(=O)[C@@H](N)Cc1c[nH]c2ccccc12)C(=O)O` [Peak F7, Trp–Val] (H-Trp-Val-OH), for which, on Rabbit lung ACE, the “ACE Inhibitory (%)” value is 54.3%. In addition, the figures for the IC50 at Rabbit lung ACE (setting [3]) and on Rabbit lung ACE (setting [4]) were 308 µM and 307.61 ± 0.01 µM, respectively.

With `CC(C)[C@H](N)C(=O)N[C@@H](Cc1c[nH]c2ccccc12)C(=O)O` [Peak F8, Val–Trp] (H-Val-Trp-OH), the IC50 is 0.593 µM at Rabbit lung ACE (IC50 (equivalent in mg/mL), peaks F7 to F10, converted from μM) and 0.58 ± 0.02 µM against Rabbit lung ACE (IC50, peptides of peaks F7 to F10 from PN-1G). Further, on Rabbit lung ACE, the “ACE Inhibitory (%)” value was determined as 86.1%.

For `CC[C@H](C)[C@H](N)C(=O)N[C@@H](Cc1c[nH]c2ccccc12)C(=O)O` [Peak F9, Ile–Trp], the “ACE Inhibitory (%)” value on Rabbit lung ACE is 95.1%. The figures for the IC50 on Rabbit lung ACE (setting [3]) and at Rabbit lung ACE (setting [4]) were 0.504 µM and 0.5 ± 0.01 µM, respectively.

For “Ala-Lys-Tyr-Ser-Tyr (AKYSY; printed: Ala-Lys-Tyr-Ser-Tyr)”, the IC50 in the assay with ACE (setting [5]) was 1.52 µM.

With Ile-Gln-Pro, in the assay with ACE (peptide from Alcalase hydrolysate, read-out: IC50), the IC50 was 5.77 µM. For the same compound, the blood pressure-lowering effect result in the assay on SHRs is reported as “same blood pressure-lowering effect as captopril”.

Ile-Trp (peptide) registered an IC50 of inhibition of ACE activity (hydrolysis of HHL to hippuric acid, RP-HPLC, 37 °C, pH 8.3) in assay [1] of 0.5 μM. The ACE Inhibitory (%) of peak F9 at peptide content 0.01 mg/mL in assay [2] was determined as 95.1%.

On to Ile-Tyr, for which, in the assay on ACE (setting [5]), the IC50 was 2.69 µM.

Leu-Arg-Tyr: the IC50 in the assay on ACE (setting [5]) was 5.06 µM.

Compound Leu-Trp (peptide) came in with an IC50 of inhibition of ACE activity (hydrolysis of HHL to hippuric acid, RP-HPLC, 37 °C, pH 8.3) in assay [1] of 1.11 μM. Besides, the ACE Inhibitory (%) of peak F10 at peptide content 0.01 mg/mL in assay [2] was 87.7%.

As to Met-Lys-Tyr, in the assay on ACE (setting [5]), the IC50 is 7.26 µM.

On to Phe–Ala–Leu, for which the IC50 in the assay on ACE (peptide from pepsin hydrolysate of C. vulgaris, read-out: IC50) was 26.3 µM.

Trp-Val (peptide) showed an IC50 of inhibition of ACE activity (hydrolysis of HHL to hippuric acid, RP-HPLC, 37 °C, pH 8.3) in assay [1] of 308 μM. The ACE Inhibitory (%) of peak F7 at peptide content 0.01 mg/mL in assay [2] was 54.3%.

Turning to “VRYL (UniProt P04654 220-223, looked up, fragment)”, the IC50 in the assay on ACE (before hydrolysis with digestive enzymes) was 9 µg/mL.

As for Val-Trp (peptide), the IC50 of inhibition of ACE activity (hydrolysis of HHL to hippuric acid, RP-HPLC, 37 °C, pH 8.3) in assay [1] amounted to 0.58 μM. In addition, in assay [2], the ACE Inhibitory (%) of peak F8 at peptide content 0.01 mg/mL worked out at 86.1%.
